Measured values reported in patent publication US12576055B2, “Disease detection and treatment based on trimethyl-lysine levels” (The Cleveland Clinic Foundation, priority 2018, dated 2026).
Blank lines part the entries; values can stand above or below the compound they belong to.

How the values were obtained:
[1] = female, C57BL/6J, mouse, in vivo
Procedure: Stable isotope dilution LC/MS/MS was used for quantification of TML, TMAO, TMA, lysine, γ-butyrobetaine and carnitine similar to that described previously (1, 8, 9, 15). For TML standard curves, varying levels of TML were spiked into 20 μl control plasma followed by precipitation with 80 μl methanol containing 0.8 nmol d9-TML. Supernatant was loaded for LC/MS/MS analysis. Analyses were performed using electrospray ionization in positive-ion mode with multiple reaction monitoring of parent and characteristic daughter ions and retention times specific for components monitored. The transitions monitored for TML were mass-to-charge ratio (m/z): m/z 189.1→84.1, 189.1→60.1, and 189.1→130.1. The internal standards (e.g., d9-trimethyl-TML, d9-trimethyl-TMAO) were added to plasma before protein precipitation. Various concentrations of analytes and a fixed amount of internal standards were spiked into control plasma to prepare the calibration curves for quantification of plasma analytes. Their concentrations in human and mouse plasma samples were determined by high-performance liquid chromatography with a Shimadzu 8050 triple quadrupole mass spectrometer interfaced to a Shimadzu Nexera Ultra High Performance Liquid Chromatograph (UHPLC) system.
Conventional mice (female, 10 weeks old, C57BL/6J, 10 per treatment group) were placed on chemically defined diets for 11 days.

[2] = system: carotid artery thrombus formation; experiment: In vivo carotid artery thrombosis model (FeCl3 induced injury); design: species or system C57BL/6J mice; settings: 1% supplemented diet for 11 days
Procedure: Conventional mice (female, 10 weeks old, C57BL/6J, 10 per treatment group) were placed on chemically defined diets for 11 days. Mice were assessed for in vivo thrombosis potential with the common carotid injury model by application of 10% FeCl3 for 1 min (11, 38). […] The left carotid artery was exposed and injured by placing a FeCl3 soaked filter paper for one minute. […] Time to cessation of blood flow was determined by visual inspection of computer images of the thrombosis process from 30 seconds to 30 minutes by investigators blinded to mouse treatment group.

[3] = reference (19); cited from earlier work
[4] = Oral (gastric gavage) d9-TML or d9-choline isotope tracer challenge, serial plasma levels by LC/MS/MS
Procedure: Supernatant was loaded for LC/MS/MS analysis.
Whole blood (50 μl) was collected via the saphenous vein from C57BL/6J (Jackson #0664) female mice prior to gavage for the measurement of baseline analyte levels. Mice were administered an oral dose of stable isotope-labelled TML or choline. The gastric gavage consisted of 150 μl of either 150 mM synthetic d9-TML or 150 mM choline-N,N,N-trimethyl-d9 (d9-choline, Cambridge Isotope Lab), followed by post-gavage blood collection at the indicated times. Where indicated, gut microbiota were suppressed in mice by placement of a cocktail of poorly absorbed antibiotics in drinking water for 3 weeks prior to the d9-TML challenge, as previously described (1, 19). Quantification of the abundance of native and isotope-labeled forms of TML, TMA and TMAO in mouse plasma was performed using stable-isotope-dilution LC-MS/MS using established methods for TMA and TML (19), and using the parent daughter ion transitions for TML and its internal standard as described above. In additional studies, the role of gut microbiota in TMAO formation from dietary TML was determined in C57BL/6J mice by performance of oral (gavage) d9-TML challenge. Mice were housed in conventional cages in the absence or presence of a cocktail of broad spectrum antibiotics added to the drinking water previously shown to suppress gut microbiota (1,19).

[5] = system: cutC/D, yeaX/W, or cntA/B microbial TMA generating enzyme systems; experiment: Recombinant microbial TMA lyases expressed in E. coli, d9-TMA production from d9-labeled substrates; format: biochemical; settings: E. coli transformed with cutC/D
[6] = system: mouse cecal, colonic and small bowel microbiota; experiment: Gut microbial TMA lyase activity assay, d9-TMA production in anaerobic cultures of mouse intestine segments
Procedure: (§1) TMA lyase activity was monitored by quantifying d9-TMA production from d9(trimethyl) labeled potential nutrient precursors by stable isotope dilution LC/MS/MS analysis. Briefly, TMA lyase activity was typically quantified by incubating the indicated enzyme source (C57BL/6J female mouse intestine segments or human feces from healthy vegans/vegetarians and omnivores). Reactions were initiated by the addition of d9-labeled substrates (d9-TML, d9-carnitine or d9-choline) incubated under anaerobic conditions. Following 20 hours incubation at 37° C., reactions were halted, [^13C3,^15N]-TMA (Sigma Chemicals, St. Louis, MO) in 0.2 N formic acid was added as an internal standard, followed by immediate extraction of TMA isotopologues into the organic layer produced following mixing with successive additions of 2 ml hexane, 1 ml butanol and 0.2 ml 1N NaOH (to deprotonate the TMA isotopologues). Mixtures were then vortexed, centrifuged, and the upper hexane layer was transferred to a 12×75 mm PTFE capped threaded glass tube, acidified with the addition of 200 μl of 0.2 N formic acid, vortexed and the organic and aqueous layers were separated by centrifugation. The now protonated TMA isotopologues were recovered in the aqueous phase for quantitation by stable isotope dilution LC/MS/MS analysis. Sample aliquots were injected onto a reverse phase C18 HPLC column (2.0×150 mm, 5 μm, Phenomenex Prodigy (Phenomenex)) eluted at a flow rate of 0.2 ml/min and resolved using a linear gradient between 0.2% formic acid in water and 0.2% formic acid in acetonitrile/methanol (95:5, v/v). HPLC column effluent was introduced into an AB Sciex 5500 QTRAP mass spectrometer using electrospray ionization in the positive-ion mode. Both d9-TMA and [^13C3,^15N]TMA were monitored using multiple reaction monitoring of parent and characteristic daughter ions: m/z 69→49 for d9-TMA; and m/z 64→47 for [^13C3,^15N]TMA. Reactions without microbial enzyme source (tissues, cells, cell lysates, or isolated proteins) were used as blank.

[7] = system: panel of 68 culturable human commensals; experiment: In vitro screening for the conversion of d9-TML to d9-TMA by culturable human commensals; format: in vitro ADME, human gut bacteria
Procedure: (§2) Human feces and all bacteria including individual strain and fresh combined 68 strains were grown with 100 μM d9-TML or d9-choline (as a positive control) in complex reduced medium in a Coy anaerobic chamber (5% H2, 20% CO2, and 75% N2, 37° C.) for 0-4 days as previously described (27). The reaction was stopped by adding 6N HCl to samples (1:100 dilution to 60 mM final), and freezing at −80° C. until d9-TMA extraction and analysis by LC-MS/MS, as described in Methods above.

[8] = system: human fecal commensals (omnivores and vegans); experiment: Gut microbial TMA lyase activity assay, d9-TMA production in human polymicrobial fecal anaerobic cultures; format: in vitro ADME
Procedure: as §1, §2

[9] = conventionally reared C57BL/6J mice, gastric gavage 150 μl of 150 mM
[10] = anaerobic culture, 20 hours, 37° C.

Compound: C[N+](C)(C)CC(=O)O [betaine]
rate as TMA nutrient precursor, less than choline [3]: about 100 fold

Compound: [2H]C([2H])([2H])[N+](CCCCC(N)C(=O)O)(C([2H])([2H])[2H])C([2H])([2H])[2H] (stereo not shown) [d9-TML, [d9-N, N, N-trimethyl] lysine]
plasma d9-TMAO following d9-TML oral gavage in mice treated with oral antibiotics ([4]; 3 weeks cocktail of poorly absorbed broad-spectrum antibiotics): no detectable | impact of pretreatment with oral antibiotics on plasma d9-TML levels following oral gavage ([4]; P=0.87): no impact | plasma level of d9-TMA following oral d9-TML gavage [4, 9]: rose only minimally | plasma level of d9-TMAO following oral d9-TML gavage [4, 9]: rose only minimally | time to increase in plasma d9-TML level following ingestion ([4]; oral gavage, C57BL/6J mice): ≤ 1 h | conversion into d9-TMA by recombinant microbial TMA generating enzyme systems [5]: none of the known recombinant microbial TMA generating enzyme systems examined supported d9-TML conversion into d9-TMA | d9-TMA formation by small bowel microbes [6, 10]: significantly lower but detectable levels | d9-TMA generation by microbes from cecal and colonic segments [6, 10]: generated d9-TMA | conversion of d9-TML to d9-TMA by eighteen individual members of the human commensal library ([7]; anaerobic, 100 μM): none of these species significantly promoted conversion | d9-TML to d9-TMA transformation by pool of all 68 species ([7]; prolonged (4 days) incubation, assay limit of detection ~1 nM): virtually no detectable | d9-TML to d9-TMA transformation, feces of omnivores versus vegans ([8]; P<0.04): significantly greater activity than vegans | overall level of TMA generation from TML in human fecal cultures ([8]; omnivores and vegans, anaerobic): relatively low

Compound: [2H]C(O)(CC(=O)[O-])C([2H])([2H])[N+](C)(C([2H])([2H])[2H])C([2H])([2H])[2H] (stereo not shown) [d9-carnitine]
synthetic capacity of cecal microbiota to generate d9-TMA, higher than that observed with d9-TML [6]: 10 fold | d9-TMA formed in vegan fecal cultures compared with d9-TML [8]: comparable degree | production of d9-TMA in polymicrobial fecal cultures from omnivores, greater [8]: > 100 fold

Continued, in another order:

plasma level of TMAO after 11 days of the indicated diet [1]: 4.5 ± 2.1 µM | plasma level of TML after 11 days of the indicated diet [1]: 37.0 ± 15.5 µM | increase in plasma TML levels ([1]; 11 days): ~100 fold
Compound: C[N+](C)(C)CCCC[C@H](N)C(=O)O [TML, N6-trimethyl-lysine]
in vivo thrombosis potential (thrombus formation rate, time to cessation of blood flow) [2]: failed to significantly change

plasma level of TMAO after 11 days of the indicated diet [1]: 90.6 ± 55.1 µM | plasma level of TML after 11 days of the indicated diet [1]: 0.8 ± 0.4 µM | rise of plasma TMAO levels ([1]; 11 days): ~20 fold
Compound: C[N+](C)(C)CCO [choline]

plasma level of isotope labeled precursor compared with d9-TML challenge ([4]; mouse, in vivo): substantially lower | peak plasma level of d9-TMA, higher than after the same molar amount of oral d9-TML ([4]; mouse, in vivo, po): 30-50 fold | peak plasma level of d9-TMAO, higher than after the same molar amount of oral d9-TML ([4]; mouse, in vivo, po): 30-50 fold | synthetic capacity of cecal microbiota to generate d9-TMA, higher than that observed with d9-TML [6]: 1000 fold | d9-TMA conversion in human fecal cultures, greater than the levels produced from d9-TML [8]: approximately 3 orders of magnitude
Compound: [2H]C([2H])([2H])[N+](CCO)(C([2H])([2H])[2H])C([2H])([2H])[2H] [d9-choline, choline-N,N,N-trimethyl-d9]
